In patent US9464255B2, “Maleinized ester derivatives” (Elevance Renewable Sciences, Inc., priority 2013, dated 2016):

Experiments:
[1] = Kinematic viscosity (KV); assay type: physicochemical
Protocol: The maleinated ester derivatives may be biodegradable and may be used as functional base oils. The functional base oil may have a kinetic viscosity (ASTM D-445) in the range from about 2 to about 1000 cSt at 100° C., or from about 2 to about 500, or from about 2 to about 100, or from about 4 to about 10 cSt. The base oil may have a viscosity up to about 35 cSt at 100° C., or in the range from about 3 to about 35 cSt, or in the range from about 5 to about 35 cSt at 100° C.

[2] = Viscosity index (ASTM D2270); assay type: physicochemical
Text: The functional base oil may have a viscosity index (ASTM D2270) in the range from about 120 to about 250, or from about 130 to about 170.

[3] = test system: microbial populations in the inoculum (activated sludge); assay: Bacterial plate counts of reaction flask solutions at Day 28; assay type: cell-based; settings: study termination
Protocol: Bacterial plate counts are performed on the prepared activated sludge prior to initiation and each replicate reaction flask solution at Day 28. A dilution series of each sample is prepared in sterile, pH 7.2, phosphate-buffered water at 10^−2, 10^−3, 10^−4, 10^−5, and 10^−6. Duplicate 1-mL aliquots of each dilution are directly analyzed by plate counting methods patterned after methods described in Standard Methods for the Examination of Water and Wastewater. (See, American Public Health Association (APHA), American Water Works Association (AWWA), and Water Environment Federation (WEF). 1998. Standard Methods for the Examination of Water and Wastewater, 20th Edition, Part 9215 B, Pour Plate Method). The bacterial growth medium is Plate Count Agar (Difco Laboratories). The plates of inocula are incubated at 26±2° C. for five to six days before counting the number of colonies on plates with fewer than 300 colonies. The number of colonies at the dilution coming closest to 300 colonies is used to calculate colony forming units (CFU)/mL for each sample.

[4] = test system: activated sludge (microbial inoculum); assay: Aerobic biodegradability in water containing mineral salts and activated sludge (CO2 evolution, DOC); settings: toxicity control >25% ThCO2 by day 6
Protocol: A maleinized ester derivative in the form of hydrogenated 1-pentyl triester of maleinated-9-dodecene methyl ester (hereinafter the “test substance”) is evaluated for aerobic biodegradability in water containing mineral salts and activated sludge. The activated sludge is taken from a wastewater treatment plant and is used as a source of microbial inoculum. The objectives of the study are: 1) to evaluate the biodegradability (mineralization to CO2 production) potential of the test substance in an aerobic, aqueous medium; and 2) to determine the mineralization potential of a reference chemical in order to assess the viability of the test inoculum.
Approximately one liter of activated sludge is used as the microbial inoculum. The sludge is collected from the Columbia Wastewater Plant in Columbia, Miss. This plant treats predominately domestic sewage.
An aqueous mineral salts medium provides essential mineral nutrients and trace elements necessary to sustain the inoculum throughout the test period. The mineral salts medium is prepared by addition of reagent grade salts to reagent water. […]
The CO2-free air is introduced into each flask by positive pressure, and the flow rates (50-100 mL/minute) are measured and adjusted using flow meters. […] Temperature of the chamber is continuously measured using a Rees Scientific temperature monitoring system. […]

[5] = Solubility in water (observation in the biodegradation test); assay type: physicochemical
Text: At study initiation, DOC concentration in the test substance replicates is not detected. […] The increase in DOC concentration from Day 0 to Day 28 is likely due to the insolubility of the test substance in water (that is, more test substance likely went into solution while stirring over time). Consequently, DOC removal cannot be calculated for the test substance.

Question: For `CCCCCOC(=O)CCCCCC/C=C/C(CC)C(CC(=O)OCCCCC)C(=O)OCCCCC` (centres unmarked) [Example 1, Tri-pentanol ester of the maleinized methyl 9-dodecenoate], which “KV (40° C.)” value ([1]; 40° C.) is on record?
Answer: 24.73 cSt

Question: What about the “KV (100° C.)” value ([1]; 100° C.) of the same molecule?
Answer: 5.0 cSt

Question: What about the “viscosity index (VI)” value [2] of the same molecule?
Answer: 128

Question: And the “Viscosity Index” value ([2]; Table 1, ASTM D2270)?
Answer: 128

Question: Which bacterial plate count ([3]; single system) does the source give for `O=C([O-])c1ccccc1.[Na+]` [reference substance, sodium benzoate, reference compound] here?
Answer: 1.4×10^4 CFU/mL

Question: Which results are given for “hydrogenated 1-pentyl triester of maleinated-9-dodecene methyl ester [test substance]”?
Answer: inhibition of the inoculum (toxicity control) [4]: not be inhibitory; inhibition of the inoculum (toxicity control) ([4]; listed as triester): not inhibitory; effect on the population of microbes [3]: no significant effect on the population of microbes; bacterial plate count ([3]; replicate A): 2.4×10^4 CFU/mL; bacterial plate count ([3]; replicate B): 3.7×10^4 CFU/mL; solubility in water [5]: insoluble in water
